The Kinase Knowledgebase extract (Sharma et al. 2016)

How the values were obtained:
[1] = molecular target: MAPK14 (UniProt Q16539); test: TNF Inhibition (In Vivo Assay)
[2] = molecular target: MAPK14 (UniProt Q16539); test: MAPK14 (CSBP) Binding Inhibition

MAPK14, sequence (Q16539 whole entry, looked up): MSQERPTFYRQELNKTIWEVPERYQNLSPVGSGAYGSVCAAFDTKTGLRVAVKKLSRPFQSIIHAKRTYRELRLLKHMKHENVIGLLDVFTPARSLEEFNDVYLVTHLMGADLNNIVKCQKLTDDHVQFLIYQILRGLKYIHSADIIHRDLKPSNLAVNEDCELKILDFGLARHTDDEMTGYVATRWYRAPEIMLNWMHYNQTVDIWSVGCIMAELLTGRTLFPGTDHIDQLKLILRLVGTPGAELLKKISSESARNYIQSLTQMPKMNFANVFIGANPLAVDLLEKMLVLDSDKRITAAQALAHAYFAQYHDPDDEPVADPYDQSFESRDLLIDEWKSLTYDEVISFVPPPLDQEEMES

Row | SMILES | IC50 [1] | IC50 [2]
1 | CC(C)Oc1nccc(-c2c(-c3ccc(F)cc3)ncn2C2CCC(O)CC2)n1 (stereo unspecified) | < 50 µM | < 50 µM
2 | CC(C)Oc1nccc(-c2c(-c3ccc(F)cc3)ncn2C2CCC(=O)CC2)n1 | < 50 µM | < 50 µM
3 | COc1nccc(-c2c(-c3ccc(F)cc3)ncn2[C@H]2CC[C@@](C)(O)CC2)n1.COc1nccc(-c2c(-c3ccc(F)cc3)ncn2[C@H]2CC[C@](C)(O)CC2)n1 | < 50 µM | < 50 µM
4 | CSc1nccc(-c2c(-c3ccc(F)cc3)ncn2[C@H]2CC[C@H](O)CC2)n1 | – | < 50 µM

Next, values leading:

Row | IC50 [1] | IC50 [2] | SMILES
5 | < 50 µM | < 50 µM | COc1nccc(-c2c(-c3ccc(F)cc3)ncn2C2CCC(=O)CC2)n1
6 | – | < 50 µM | O=C1CCC(n2cnc(-c3ccc(F)cc3)c2-c2ccnc(O)n2)CC1
7 | – | < 50 µM | CSc1nccc(-c2c(-c3ccc(F)cc3)ncn2C2CCC(=O)CC2)n1
